Tests used:
Format in all cases: in vivo
Details in all cases: evaluated after 13 days
[1] = test system: Ipomoea hederacea (IPOHE); assay: Pre-emergence herbicide test, glasshouse, percentage damage
Method: (§1) Seeds of a variety of test species are sown in standard soil in pots (Lolium perenne (LOLPE), Solanum nigrum (SOLNI), Amaranthus retoflexus (AMARE), Setaria faberi (SETFA), Echinochloa crus-galli (ECHCG), Ipomoea hederacea (IPOHE)). After cultivation for one day (pre-emergence) or after 8 days cultivation (post-emergence) under controlled conditions in a glasshouse (at 24/16° C., day/night; 14 hours light; 65% humidity), the plants are sprayed with an aqueous spray solution derived from the formulation of the technical active ingredient in acetone/water (50:50) solution containing 0.5% Tween 20 (polyoxyethelyene sorbitan monolaurate, CAS RN 9005-64-5). Compounds are applied at 500 g/ha unless otherwise stated. The test plants are then grown in a glasshouse under controlled conditions in a glasshouse (at 24/16° C., day/night; 14 hours light; 65% humidity) and watered twice daily. After 13 days for pre and post-emergence, the test is evaluated for the percentage damage caused to the plant. The biological activities are shown in the following table on a five point scale (5=81-100%; 4=61-80%; 3=41-60%; 2=21-40%; 1=0-20%).

[2] = test system: Echinochloa crus-galli (ECHCG); assay: as above
Method: as §1

Setaria faberi (SETFA) [3] = assay: as above
Method: as §1

Solanum nigrum (SOLNI) [4] = assay: as above
Method: as §1

Lolium perenne (LOLPE) [5] = assay: as above
Method: as §1

[6] = test system: Amaranthus retoflexus (AMARE); assay: as above
Method: as §1

[7] = test system: Ipomoea hederacea (IPOHE); assay: Post-emergence herbicide test, glasshouse, percentage damage
Method: as §1

[8] = test system: Echinochloa crus-galli (ECHCG); assay: as above
Method: as §1

Setaria faberi (SETFA) [9] = assay: as above
Method: as §1

Solanum nigrum (SOLNI) [10] = assay: as above
Method: as §1

Lolium perenne (LOLPE) [11] = assay: as above
Method: as §1

[12] = test system: Amaranthus retoflexus (AMARE); assay: as above
Method: as §1

Row | SMILES | Pre-emergence Test IPOHE percentage damage (five point scale) ([1]; rate 1000 g/ha) | Pre-emergence Test ECHCG percentage damage (five point scale) ([2]; rate 1000 g/ha) | Pre-emergence Test SETFA percentage damage (five point scale) (Setaria faberi (SETFA) [3]; rate 1000 g/ha) | Pre-emergence Test SOLNI percentage damage (five point scale) (Solanum nigrum (SOLNI) [4]; rate 1000 g/ha) | Pre-emergence Test LOLPE percentage damage (five point scale) (Lolium perenne (LOLPE) [5]; rate 1000 g/ha) | Pre-emergence Test AMARE percentage damage (five point scale) ([6]; rate 1000 g/ha) | percentage damage caused to the plant, IPOHE ([7]; 1000 g/ha) | percentage damage caused to the plant, ECHCG ([8]; 1000 g/ha) | percentage damage caused to the plant, SETFA (Setaria faberi (SETFA) [9]; 1000 g/ha) | percentage damage caused to the plant, SOLNI (Solanum nigrum (SOLNI) [10]; 1000 g/ha) | percentage damage caused to the plant, LOLPE (Lolium perenne (LOLPE) [11]; 1000 g/ha) | percentage damage caused to the plant, AMARE ([12]; 1000 g/ha) | further results
1 | Fc1cc(C(F)(F)F)cnc1Oc1cccc(F)c1-c1cc(C(F)F)no1 [Compound A21] | 2 (2=21-40%) | 5 (5=81-100%) | 5 (5=81-100%) | 2 (2=21-40%) | 4 (4=61-80%) | 5 (5=81-100%) | 3 (3=41-60%) | 4 (4=61-80%) | 4 (4=61-80%) | 3 (3=41-60%) | 3 (3=41-60%) | 4 (4=61-80%) | 
2 | O=[N+]([O-])c1cnc(Oc2cccc(F)c2-c2cc(C(F)F)no2)c(F)c1 [Compound A22] | 1 (1=0-20%) | 3 (3=41-60%) | 3 (3=41-60%) | 1 (1=0-20%) | 1 (1=0-20%) | 5 (5=81-100%) | 3 (3=41-60%) | 2 (2=21-40%) | 3 (3=41-60%) | 4 (4=61-80%) | 2 (2=21-40%) | 4 (4=61-80%) | 
3 | N#Cc1cnc(Oc2cccc(F)c2-c2cc(C(F)F)no2)c(F)c1 [Compound A23] | 5 (5=81-100%) | 5 (5=81-100%) | 5 (5=81-100%) | 4 (4=61-80%) | 5 (5=81-100%) | 5 (5=81-100%) | 5 (5=81-100%) | 5 (5=81-100%) | 5 (5=81-100%) | 5 (5=81-100%) | 5 (5=81-100%) | 5 (5=81-100%) | 
4 | Fc1cc(Cl)cnc1Oc1ccccc1-n1cc(Cl)cn1 [Compound A24, 5-chloro-2-[2-(4-chloropyrazol-1-yl)phenoxy]-3-fluoro-pyridine] | 3 (3=41-60%) | 5 (5=81-100%) | 5 (5=81-100%) | 3 (3=41-60%) | 4 (4=61-80%) | 5 (5=81-100%) | 3 (3=41-60%) | 4 (4=61-80%) | 4 (4=61-80%) | 4 (4=61-80%) | 3 (3=41-60%) | 4 (4=61-80%) | 
5 | Fc1cc(Cl)cnc1Oc1cccc(F)c1-c1cc(C(F)(F)F)on1 [Compound A25, 3-[2-[(5-chloro-3-fluoro-2-pyridyl)oxy]-6-fluoro-phenyl]-5-(trifluoromethyl)isoxazole] | 5 (5=81-100%) | 5 (5=81-100%) | 5 (5=81-100%) | 5 (5=81-100%) | 5 (5=81-100%) | 5 (5=81-100%) | 4 (4=61-80%) | 4 (4=61-80%) | 5 (5=81-100%) | 5 (5=81-100%) | 5 (5=81-100%) | 5 (5=81-100%) | 
6 | N#Cc1cnn(-c2ccccc2Oc2ncc(Cl)cc2F)c1 [Compound A26] | 4 (4=61-80%) | 5 (5=81-100%) | 5 (5=81-100%) | 5 (5=81-100%) | 5 (5=81-100%) | 5 (5=81-100%) | 3 (3=41-60%) | 5 (5=81-100%) | 5 (5=81-100%) | 5 (5=81-100%) | 3 (3=41-60%) | 5 (5=81-100%) | 
7 | Fc1cc(Cl)cnc1Oc1ccccc1-n1cc(Br)cn1 [Compound A27] |  |  |  |  |  |  |  |  |  |  |  |  | Pre-emergence Test IPOHE percentage damage (five point scale) ([1]; rate 250 g/ha): 1 (1=0-20%); Pre-emergence Test ECHCG percentage damage (five point scale) ([2]; rate 250 g/ha): 5 (5=81-100%); Pre-emergence Test SETFA percentage damage (five point scale) (Setaria faberi (SETFA) [3]; rate 250 g/ha): 4 (4=61-80%); Pre-emergence Test SOLNI percentage damage (five point scale) (Solanum nigrum (SOLNI) [4]; rate 250 g/ha): 5 (5=81-100%); Pre-emergence Test LOLPE percentage damage (five point scale) (Lolium perenne (LOLPE) [5]; rate 250 g/ha): 3 (3=41-60%); Pre-emergence Test AMARE percentage damage (five point scale) ([6]; rate 250 g/ha): 5 (5=81-100%); percentage damage caused to the plant, IPOHE ([7]; 250 g/ha): 2 (2=21-40%); percentage damage caused to the plant, ECHCG ([8]; 250 g/ha): 5 (5=81-100%); percentage damage caused to the plant, SETFA (Setaria faberi (SETFA) [9]; 250 g/ha): 5 (5=81-100%); percentage damage caused to the plant, SOLNI (Solanum nigrum (SOLNI) [10]; 250 g/ha): 5 (5=81-100%); percentage damage caused to the plant, LOLPE (Lolium perenne (LOLPE) [11]; 250 g/ha): 2 (2=21-40%); percentage damage caused to the plant, AMARE ([12]; 250 g/ha): 4 (4=61-80%)
8 | Fc1cc(Cl)cnc1Oc1ccccc1-n1ccnc1 [Compound A28, 5-chloro-3-fluoro-2-(2-imidazol-1-ylphenoxy)pyridine] | 1 (1=0-20%) | 1 (1=0-20%) | 1 (1=0-20%) | 1 (1=0-20%) | 1 (1=0-20%) | 3 (3=41-60%) | 1 (1=0-20%) | 1 (1=0-20%) | 1 (1=0-20%) | 4 (4=61-80%) | 1 (1=0-20%) | 5 (5=81-100%) | 
9 | Fc1cc(Cl)cnc1Oc1ccccc1-n1cncn1 [Compound A29] | 1 (1=0-20%) | 1 (1=0-20%) | 4 (4=61-80%) | 3 (3=41-60%) | 1 (1=0-20%) | 5 (5=81-100%) | 2 (2=21-40%) | 1 (1=0-20%) | 2 (2=21-40%) | 4 (4=61-80%) | 1 (1=0-20%) | 4 (4=61-80%) | 

Reference: patent US12227495B2, “Herbicidal compounds” (SYNGENTA CROP PROTECTION AG, priority 2018, dated 2025)
